# pIC50: −log10 of the molar value.
# Assays:
# [1] = target: T1, Tyrosine-protein phosphatase non-receptor type 1 (Homo sapiens, UniProt P18031); assay: Inhibition of PTP1B using fluorescein 3,6 diphosphate as substrate measured for 1 hr in presence of 1 mM dithiothreitol
# T1 sequence (P18031 whole entry): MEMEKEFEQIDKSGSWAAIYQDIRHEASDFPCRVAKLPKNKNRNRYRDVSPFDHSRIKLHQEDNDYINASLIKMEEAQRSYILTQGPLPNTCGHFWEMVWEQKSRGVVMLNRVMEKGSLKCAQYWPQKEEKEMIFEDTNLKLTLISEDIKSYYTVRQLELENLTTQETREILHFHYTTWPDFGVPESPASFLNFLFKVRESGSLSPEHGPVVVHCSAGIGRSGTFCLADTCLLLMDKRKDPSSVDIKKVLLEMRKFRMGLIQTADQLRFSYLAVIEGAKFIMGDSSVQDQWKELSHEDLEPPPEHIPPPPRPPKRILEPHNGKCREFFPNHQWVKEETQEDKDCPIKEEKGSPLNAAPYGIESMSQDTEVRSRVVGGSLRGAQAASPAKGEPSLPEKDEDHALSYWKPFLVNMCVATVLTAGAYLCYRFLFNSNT
# [2] = target: T2, Tyrosine-protein phosphatase non-receptor type 1 (Homo sapiens) (UniProt P18031); assay: Inhibition of PTP1B using fluorescein 3,6 diphosphate as substrate at 50 uM measured for 1 hr in presence of 1 mM dithiothreitol
# T2 sequence (whole entry): T1 sequence (P18031 whole entry)
# [3] = target: T2, Tyrosine-protein phosphatase non-receptor type 1 (Homo sapiens); assay: Inhibition of PTP1B using fluorescein 3,6 diphosphate as substrate at 100 uM measured for 1 hr in presence of 1 mM dithiothreitol
# [4] = target: T3, M-phase inducer phosphatase 2 (Homo sapiens, UniProt P30305); assay: Inhibition of MBP-fused recombinant wild type CDC25B3 using fluorescein 3,6 diphosphate as substrate measured for 30 mins in presence of 1 mM dithiothreitol
# T3 sequence (P30305 whole entry): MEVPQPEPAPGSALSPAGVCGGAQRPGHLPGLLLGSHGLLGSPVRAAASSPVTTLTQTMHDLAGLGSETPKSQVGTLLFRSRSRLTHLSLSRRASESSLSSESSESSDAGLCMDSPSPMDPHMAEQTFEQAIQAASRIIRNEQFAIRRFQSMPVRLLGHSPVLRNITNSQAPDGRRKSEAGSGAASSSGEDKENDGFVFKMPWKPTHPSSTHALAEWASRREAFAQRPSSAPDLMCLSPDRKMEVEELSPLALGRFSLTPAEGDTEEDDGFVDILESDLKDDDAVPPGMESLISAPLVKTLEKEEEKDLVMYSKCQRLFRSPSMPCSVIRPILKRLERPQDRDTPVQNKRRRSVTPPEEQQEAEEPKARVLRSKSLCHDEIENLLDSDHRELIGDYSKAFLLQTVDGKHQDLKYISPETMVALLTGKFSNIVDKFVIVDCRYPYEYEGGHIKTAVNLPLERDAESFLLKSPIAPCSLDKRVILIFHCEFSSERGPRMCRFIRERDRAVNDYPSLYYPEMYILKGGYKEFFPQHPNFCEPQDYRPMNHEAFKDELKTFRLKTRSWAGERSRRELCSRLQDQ
# [5] = target: T4, Dual specificity protein phosphatase 3 (Homo sapiens, UniProt P51452); assay: Inhibition of VHR using fluorescein 3,6 diphosphate as substrate at 100 uM measured for 1 hr in presence of 1 mM dithiothreitol
# Target sequence in this assay (P51452 whole entry, looked up, the tested form may be a part): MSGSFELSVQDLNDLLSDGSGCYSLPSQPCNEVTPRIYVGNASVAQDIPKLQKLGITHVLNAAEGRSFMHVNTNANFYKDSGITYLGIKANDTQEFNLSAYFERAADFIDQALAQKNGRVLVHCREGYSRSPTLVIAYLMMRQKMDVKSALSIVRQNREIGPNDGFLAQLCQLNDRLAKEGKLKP
# [6] = target: T3, M-phase inducer phosphatase 2; assay: Inhibition of MBP-fused recombinant wild type CDC25B3 using fluorescein 3,6 diphosphate as substrate measured for 30 mins in presence of 20 mM dithiothreitol
# [7] = target: T3, M-phase inducer phosphatase 2; assay: Inhibition of MBP-fused recombinant wild type CDC25B3 using fluorescein 3,6 diphosphate as substrate measured for 30 mins in presence of 10 mM dithiothreitol
# [8] = target: T4, Dual specificity protein phosphatase 3; assay: Inhibition of VHR using fluorescein 3,6 diphosphate as substrate at 10 uM measured for 1 hr in presence of 1 mM dithiothreitol
# Target sequence in this assay (P51452 whole entry, looked up, the tested form may be a part): as above
# [9] = target: T2, Tyrosine-protein phosphatase non-receptor type 1 (Homo sapiens); assay: Inhibition of PTP1B using fluorescein 3,6 diphosphate as substrate at 10 uM measured for 1 hr in presence of 1 mM dithiothreitol
# [10] = target: T5, M-phase inducer phosphatase 2 (Homo sapiens) (UniProt P30305); assay: Inhibition of MBP-fused recombinant wild type CDC25B3 using fluorescein 3,6 diphosphate as substrate at 100 uM measured for 30 mins in presence of 1 mM dithiothreitol
# T5 sequence (whole entry): T3 sequence (P30305 whole entry)
# [11] = target: T4, Dual specificity protein phosphatase 3; assay: Inhibition of VHR using fluorescein 3,6 diphosphate as substrate measured for 1 hr in presence of 1 mM dithiothreitol
# Target sequence in this assay (P51452 whole entry, the tested form may be a part): as the sequence (P51452 whole entry, looked up, the tested form may be a part) above
compound,measurement,setting,value
O=C1N=C(NCCCCNC2=NC(=O)/C(=C/c3ccc(O)cc3)S2)S/C1=C\c1ccc(O)cc1,pIC50,[1],4.55
O=C1N=C(NCCCCCCCNC2=NC(=O)/C(=C/c3ccc(O)cc3)S2)S/C1=C\c1ccc(O)cc1,pIC50,[1],4.51
O=C1N=C(NCCCn2cc(CNC3=NC(=O)/C(=C/c4ccc(O)cc4)S3)nn2)S/C1=C\c1ccc(O)cc1,inhibition,[2],25%
O=C1N=C(NCCCCCCCNC2=NC(=O)/C(=C/c3ccc(O)c(O)c3)S2)S/C1=C\c1ccc(O)c(O)c1,pIC50,[1],4.63
O=C1N=C(NCCCCCCCNC2=NC(=O)/C(=C/C=C/c3ccccc3)S2)S/C1=C\C=C\c1ccccc1,inhibition,[3],51%
same,pIC50,[4],5.11
same,inhibition,[5],34%
O=C1N=C(NCCN2CCN(CCNC3=NC(=O)/C(=C/c4ccc5c(c4)OCO5)S3)CC2)S/C1=C\c1ccc(O)cc1,inhibition,[3],19%
same,pIC50,[4],5.36
same,inhibition,[5],29%
O=C1N=C(NCCN2CCN(CCNC3=NC(=O)/C(=C/c4ccc(O)cc4)S3)CC2)S/C1=C\C=C\c1ccco1,inhibition,[3],39%
O=C1N=C(NCCCCCCCNC2=NC(=O)/C(=C/c3cc(Br)c(O)c(Br)c3)S2)S/C1=C\c1cc(Br)c(O)c(Br)c1,pIC50,[6],5.49
same,pIC50,[4],5.86
same,inhibition,[5],100%
same,pIC50,[7],5.51
same,pIC50,[1],4.62
same,inhibition,[8],31%
O=C1N=C(NCCCCCCCNC2=NC(=O)/C(=C/c3ccc(-c4ccccc4)o3)S2)S/C1=C\c1ccc(-c2ccccc2)o1,inhibition,[3],50%
O=C1N=C(NCCCc2cn(CCNC3=NC(=O)/C(=C/c4ccc(O)cc4)S3)nn2)S/C1=C\c1ccc(O)cc1,inhibition,[2],35%
O=C(O)/C=C/c1ccc(/C=C2\SC(NCCCCCCCNC3=NC(=O)/C(=C/c4ccc(/C=C/C(=O)O)cc4)S3)=NC2=O)cc1,pIC50,[1],4.57
O=C1N=C(NCCCCCCCNC2=NC(=O)/C(=C/c3ccc4c(c3)OCO4)S2)S/C1=C\c1ccc2c(c1)OCO2,inhibition,[3],30%
same,pIC50,[4],4.86
same,inhibition,[5],27%
O=C1N=C(NCCN2CCN(CCNC3=NC(=O)/C(=C/c4ccc(O)cc4)S3)CC2)S/C1=C\C=C\c1ccccc1,inhibition,[3],13%
COc1cc(/C=C2\SC(NCCCCCCCNC3=NC(=O)/C(=C/c4cc(OC)c(O)c(OC)c4)S3)=NC2=O)cc(OC)c1O,inhibition,[3],2%
O=C1N=C(NCCCn2cc(CCNC3=NC(=O)/C(=C/c4ccc(O)cc4)S3)nn2)S/C1=C\c1ccc(O)cc1,pIC50,[4],4.69
same,inhibition,[2],20%
same,inhibition,[5],55%
O=C1N=C(NCCCc2cn(CCCNC3=NC(=O)/C(=C/c4ccc(O)cc4)S3)nn2)S/C1=C\c1ccc(O)cc1,inhibition,[2],50%
O=C1N=C(NCCN2CCN(CCNC3=NC(=O)/C(=C/c4cc(Br)c(O)c(Br)c4)S3)CC2)S/C1=C\c1ccc(O)cc1,inhibition,[9],33%
same,inhibition,[3],100%
O=C1N=C(NCCCCCCCNC2=NC(=O)/C(=C/c3ccccc3)S2)S/C1=C\c1ccccc1,pIC50,[1],4.38
O=C1N=C(NCCN2CCN(CCNC3=NC(=O)/C(=C/c4ccc5[nH]ncc5c4)S3)CC2)S/C1=C\c1ccc(O)cc1,inhibition,[3],18%
O=C1N=C(NCCCCCCCCCNC2=NC(=O)/C(=C/c3ccc(O)cc3)S2)S/C1=C\c1ccc(O)cc1,pIC50,[1],5.21
O=C1N=C(NCc2ccccc2)S/C1=C\c1ccc(O)cc1,inhibition,[3],46%
same,inhibition,[10],45%
same,inhibition,[5],8%
O=C1N=C(NCCN2CCN(CCNC3=NC(=O)/C(=C/c4ccc(O)cc4)S3)CC2)S/C1=C\c1ccc(O)cc1,pIC50,[1],4.34
CCCCNC1=NC(=O)/C(=C/c2ccc(O)cc2)S1,inhibition,[3],35%
O=C1N=C(NCc2cccc(CNC3=NC(=O)/C(=C/c4ccc(O)cc4)S3)c2)S/C1=C\c1ccc(O)cc1,pIC50,[1],5.04
CCCCCNC1=NC(=O)/C(=C/c2ccc(O)cc2)S1,inhibition,[3],35%
O=C1N=C(NCCCCCCNC2=NC(=O)/C(=C/c3ccc(O)cc3)S2)S/C1=C\c1ccc(O)cc1,pIC50,[1],4.91
CC1=CC(=O)c2ccccc2C1=O [MENADIONE],pIC50,[4],5.66
O=C1N=C(NCC2CCCC(CNC3=NC(=O)/C(=C/c4ccc(O)cc4)S3)C2)S/C1=C\c1ccc(O)cc1 (stereo not drawn),pIC50,[4],5.18
same,inhibition,[5],30%
same,pIC50,[1],5.05
CNC1=NC(=O)/C(=C/c2ccc(O)cc2)S1,inhibition,[3],32%
O=C1N=C(NCCCCCCCCNC2=NC(=O)/C(=C/c3ccc(O)cc3)S2)S/C1=C\c1ccc(O)cc1,pIC50,[4],5.41
same,inhibition,[5],29%
same,pIC50,[1],4.94
O=C1N=C(NCCCCCNC2=NC(=O)/C(=C/c3ccc(O)cc3)S2)S/C1=C\c1ccc(O)cc1,pIC50,[4],4.86
same,pIC50,[1],4.69
same,pIC50,[11],4.12
